In a melting point compilation (Tetko et al.; mined from patent text by program, amines drawn as free bases though some values may be those of a salt):

First: Clc1ccc2[nH]cc([C@H]3CC[C@@H](N4CCN(c5cccc6[nH]ccc56)CC4)CC3)c2c1
Second: O=C(N[C@H]1CCN(C(=O)c2cc(Cl)cc(Cl)c2)[C@H](Cc2ccccc2)C1)c1cc2ccccc2[nH]1 (relative stereo)
The melting point of the first is higher: 283 to 285 °C for the first, 254 °C for the second.

Compared with `O=C1c2ccccc2C(=O)N1OC/C=C/C=C/c1ccc(F)cc1`, `N#Cc1ccccc1Cn1cc(-c2ccnc(NCCCO)n2)n(-c2ccc(F)cc2)c1=O` is higher in melting point: 155 to 157 °C for the first, 166 to 167 °C for the second.

First: CS(=O)(=O)Nc1ccc(C(=O)c2ccc(Cl)cc2)cc1
Second: CCN(c1ccc(Cl)cc1[N+](=O)[O-])S(=O)(=O)c1ccc(C#N)cc1
The melting point of the first is higher: 198 to 200 °C for the first, 146 to 148 °C for the second.

First: CC1CCC(N(CC2CCC(CN(C(=O)Nc3ccc(N(C)C)cc3)C3CCC(C)CC3)CC2)C(=O)Nc2ccc(N(C)C)cc2)CC1 (stereo not given)
Second: CC(C)c1cccc(C(C)C)c1NC(=O)NCC1(c2ccc(N(C)C)cc2)CCCC1
The melting point of the first is higher: 150 to 153 °C for the first, 132 to 133 °C for the second.

First: O=c1cc(-c2nnn[nH]2)oc2cc(COc3cccc(OCc4ccc5ccccc5n4)c3)ccc12
Second: CCCCOC(=O)c1cc([N+](=O)[O-])c(Oc2ccc(OCc3ccccc3)cc2)c(S(N)(=O)=O)c1
The melting point of the first is higher: 246 °C for the first, 138 to 144 °C for the second.

First: COc1cccc(CCC(=O)CCCCCC(=O)O)c1
Second: O=C(O)c1ccc(CCCOCCCCCCBr)s1
The melting point of the first is lower: 41 to 43 °C for the first, 93 to 95 °C for the second.

Compared with `CCCCC[C@@H](CNC(=O)Nc1c(OCC)ccc2c1CCC2)c1cccc2c1OCO2`, `CC(=O)NCC1CCN(CC2COc3ccccc3O2)CC1` (stereo not given) is higher in melting point: 108 to 109 °C for the first, 138 °C for the second.

First: C=C1CC(C)(COc2cc(=O)oc3ccccc23)OC1=O (stereo not given)
Second: Cc1cn2c(n1)Cc1ccccc1NC2=O
The melting point of the first is lower: 161 to 162 °C for the first, 234 to 236 °C for the second.

First: O=C(Nc1ccc(Cl)cn1)c1nc(-c2ccccc2)c2ccccc2c1O
Second: CS(=O)(=O)NCCCCn1c(-c2ccccc2)nc2c(N)nc3ccccc3c21
The melting point of the first is higher: 249 to 251 °C for the first, 234 to 235 °C for the second.

Compared with `Cc1nc(-c2ccc3c(c2)CCCC3)c(CC(Cl)C(=O)O)o1` (stereo not given), `CN1C(=O)CC[C@]2(C)c3ccc(-c4cccnc4)cc3CC[C@@H]12` is lower in melting point: 141 to 142 °C for the first, 135 °C for the second.

First: CN(C)S(=O)(=O)c1cccc(Cl)c1S(N)(=O)=O
Second: C=C(C)CCOc1c(-c2ccc(S(C)(=O)=O)cc2)cnn(-c2cccc(Cl)c2)c1=O
The melting point of the first is higher: 171 to 182 °C for the first, 110 to 112 °C for the second.

`CN(C(=O)Nc1ccc(Cl)c(Cl)c1)C(Cl)C(Cl)(Cl)Cl` (stereo not given) and `O=C(Cc1ccccc1)Cc1ccc(Cl)c(Cl)c1` cannot be ordered by melting point: 132 to 140 °C for the first, 131 to 133 °C for the second.

First: Cc1cc(C2C=CCC2)c(S(C)(=O)=O)cc1C(=O)N=C(N)N (stereo not given)
Second: Cc1ccnc(NC(=O)C2CC2)c1[N+](=O)[O-]
The melting point of the first is higher: 212 to 214 °C for the first, 179 °C for the second.

First: COc1ccc(OC)c(NC(=O)c2cccc3cc(O)ccc23)c1
Second: COc1cccc(NC(=O)Nc2ccc(N3CCN(C(=O)Nc4ccc(OCCO)cc4C(F)(F)F)CC3)cc2)c1OC
The melting point of the first is higher: 165 to 166 °C for the first, 135 to 138 °C for the second.

First: CC(=O)OCC(=O)C1(OC(C)=O)C(C)CC2C3CC(Cl)C4=CC(=O)C=CC4(C)C34OC4CC21C (stereo not given)
Second: CC(=O)OCC1OC(ONc2ccc(C)cc2)C(OC(C)=O)C(OC(C)=O)C1OC(C)=O (stereo not given)
The melting point of the first is higher: 211 °C for the first, 93 °C for the second.

Compared with `OC1CCc2c(Br)cccc21` (single isomer, unassigned; (-)), `Oc1cccc(-c2ncc3ncc(Cl)cc3n2)c1` is higher in melting point: 81 °C for the first, 252 to 253 °C for the second.

First: CC(C)OC(=O)N=C1SCS1
Second: CSc1ccc(C=O)cc1OC(C)C
The melting point of the first is higher: 72 to 73 °C for the first, 50 to 54 °C for the second.

First: CC(C)C(=O)Nc1nc(CN2CCN(C(c3ccccc3)c3ccccc3)CC2)cs1
Second: CC(=O)C(C)n1nc(C(=O)NC2CN(C)CCN(Cc3ccccc3)C2)c2ccccc21 (stereo not given)
The melting point of the first is higher: 132 to 140 °C for the first, 97 to 100 °C for the second.

First: N#CCCn1cnc2ccccc21
Second: CCSC(=O)N(C=C(C#N)C#N)c1cccc(Cl)c1
The melting point of the first is higher: 108 to 110 °C for the first, 68 °C for the second.

First: CC(=O)NC1(C)CCN(Cc2ccccc2)C1 (stereo not given)
Second: O=C(OCc1ccccc1)N1CCC2(CC1)CN(c1ccccc1)C(=O)O2
The melting point of the first is higher: 105 to 106 °C for the first, 100 to 102 °C for the second.

Compared with `O=C(CCc1ccccc1)N[C@H](Cc1ccc(C(F)(F)F)o1)[C@@H](O)c1ccc(F)cc1` (racemic), `CCc1nc(Cl)c(C(N)=O)n1Cc1ccc2oc(-c3ccccc3NS(=O)(=O)C(F)(F)F)c(Br)c2c1` is lower in melting point: 91 to 92 °C for the first, 68 to 70 °C for the second.

First: CCC1(c2ccnc(OC)c2CO)OCCCO1
Second: CC(=O)OC1C=CC2(C)C(=CCC3C2CCC2(C)C3CCC23OCCO3)C1 (stereo not given)
The melting point of the first is lower: 79 °C for the first, 105 to 106 °C for the second.

Compared with `O=C(O)c1cn(C2CC2)c2c(F)c(N3CCC(CNCCF)C3)c(F)cc2c1=O` (stereo not given), `COc1cc2oc(=O)c3c(c2cc1N)CCN(CC(C)=O)C3` is higher in melting point: 134 to 138 °C for the first, 178 to 180 °C for the second.

Compared with `N#Cc1ccc(-c2ccc(OC3SCC(O)C(O)C3O)c(F)n2)cn1` (stereo not given), `CC(=O)Nc1nc2c(s1)-c1c(cnn1-c1ccc(Cl)cc1)C2` is higher in melting point: 158 to 162 °C for the first, 296 to 305 °C for the second.

Compared with `COC(=O)Nc1ccc(OC(=O)OC)cc1`, `Cc1noc(-c2cccc(NC(=O)Oc3ccc([N+](=O)[O-])cc3)c2)n1` is higher in melting point: 75 to 76 °C for the first, 217 to 220 °C for the second.

`CCNc1nc(C)c(C(=O)c2ccc(N)c(N)c2)s1` and `COCCNc1nc(N)nc(-c2cc(Cl)ccc2Cl)n1` cannot be ordered by melting point: 185 to 225 °C for the first, 195 to 197 °C for the second.

First: O=C(O)C1=CS[C@@H]2/C(=C\c3ccc4nc5sccn5c4c3)C(=O)N12
Second: CCCCc1nc(C(C)O)c(C#N)n1Cc1ccc(-c2ccccc2C(=O)O)cc1 (stereo not given)
The melting point of the first is higher: greater than 250 °C for the first, 200 to 201 °C for the second.

Compared with `CSC(C)(C)C(NS(=O)(=O)c1ccc(Oc2ccccc2)cc1)C(=O)O` (stereo not given), `COC(=O)C(CCSC)NC(=O)c1ccc(CS(=O)(=O)c2cccnc2)cc1-c1ccccc1` (stereo not given) is lower in melting point: 156 to 158 °C for the first, 152 to 154 °C for the second.

First: CCCCCCCCCCCCCCCCCCOc1cc(OCCCOc2ccc(S(C)(=O)=O)cc2)cc(C(=O)OC)c1
Second: CCCCn1c(CCC)cc(=O)c(C(=O)Nc2ccccc2)c1CCC
The melting point of the first is lower: 101 to 102 °C for the first, 134 to 136 °C for the second.

First: CCOC(=O)c1ncc2[nH]c3cccc(O)c3c2c1COC
Second: CCOC(=O)C1=C(N)NC(N)=C(C(=O)OCC)C1c1ccccc1F
The melting point of the first is higher: 179 to 181 °C for the first, 128 to 130 °C for the second.

Compared with `Oc1cc(Cl)nc(Cl)c1`, `C=CCOC1CC(C)(C)N(c2nc(Cl)nc(Cl)n2)C(C)(C)C1` is lower in melting point: 201 to 202 °C for the first, 53 to 55 °C for the second.

Compared with `C[C@H](C#Cc1ccc(Cc2ccccc2)s1)N(O)C(N)=O`, `COc1ccc2c(c1)CC(NC(=S)NCCOC(=O)c1ccccc1)CC2` (stereo not given) is lower in melting point: 140 to 142 °C for the first, 103 to 106 °C for the second.

Going from `CC(=O)Oc1cc(C)cc(C2(CC#N)N=NC=C2c2cc(NCC(C)OC(C)=O)nc(-c3cccnc3)n2)c1` (stereo not given) to `COc1cc(CN2C(=O)CCC2=O)cc(OC)c1-c1ccc(C[C@H](NC(=O)c2c(Cl)cccc2Cl)C(=O)O)cc1`, the melting point falls from 230 °C to 137 °C.

Compared with `CC(C)(CO)NS(=O)(=O)c1cccc(NC(=O)c2cnn3c(C(F)(F)F)cc(-c4ccc(C(F)(F)F)c(F)c4)nc23)c1`, `CCOC(=O)C1=C(C)NC(c2c(F)cccc2F)=NC1c1ccc(F)cc1Cl` (stereo not given) is lower in melting point: 221 °C for the first, 163 to 165 °C for the second.

First: CC(=O)C(=C1SCCCN1C(C)=O)[N+](=O)[O-]
Second: O=C(CSC(=S)N1Cc2[nH]c3ccccc3c2CC1C(=O)O)c1ccccc1 (stereo not given)
The melting point of the first is lower: 73.5 to 76 °C for the first, 116 °C for the second.
